System: hydrogen peroxide (H2O2) production
Experiment: Hydrogen peroxide production
Conditions: low concentrations relevant for the respiratory air and therapeutic range

In the case of `CC12CCC(CC1)C(C)(C)O2` [1,8-cineol, 1,3,3-trimethyl-2-oxabicyclo-[2.2.2]-octane], the “production of H2O2” value is reported as “inhibited the production of O2^− radicals and H2O2”.

— patent publication US11123323B2, “Monoterpenes for treating respiratory disorders, in particular bronchopulmonary disorders” (Maria Clemetine Martin Klosterfrau Vertriebsqesellschaft MBH, priority 2008, dated 2021)
